Molecular target: T1, MAPKAPK3 (Homo sapiens, UniProt Q16644)
T1 construct: purchased Thermo Fisher Scientific (Life Technologies) SelectScreen
Test: SelectScreen Z'LYTE
Type: biochemical
Summary of the method: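 Percent values come from Thermo SelectScreen profiling of NU5455, combining activity and binding assays. CSF1R was run in Z'LYTE format at Km app ATP, and CAMK1 in Adapta format with ATP listed at 10.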

T1 sequence (Q16644 whole entry): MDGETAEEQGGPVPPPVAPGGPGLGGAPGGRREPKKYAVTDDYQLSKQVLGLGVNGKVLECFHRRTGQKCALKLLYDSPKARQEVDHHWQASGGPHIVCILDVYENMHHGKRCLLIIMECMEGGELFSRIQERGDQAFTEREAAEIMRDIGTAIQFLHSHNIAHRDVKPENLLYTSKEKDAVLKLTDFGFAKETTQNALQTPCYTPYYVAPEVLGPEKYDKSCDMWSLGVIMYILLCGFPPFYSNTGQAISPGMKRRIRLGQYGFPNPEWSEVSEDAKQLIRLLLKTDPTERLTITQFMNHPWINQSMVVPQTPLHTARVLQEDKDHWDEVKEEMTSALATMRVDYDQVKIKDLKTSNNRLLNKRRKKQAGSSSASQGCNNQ

`CN(C(=O)CN1CCOCC1)c1ccc2sc3c(-c4cccc5c(=O)cc(N6CC7CCC(C6)O7)oc45)cccc3c2c1` [NU5455] showed an inhibition at 1 µM of 1.4%.
